SMILES strings stand for the structures. Active and inactive are the calls of the source. No cut-off for these calls is given here.

The test system of series [1] is Echinococcus granulosus. In words: Inhibition of Echinococcus granulosus. It is filed as functional.
The subject of series [2] is Echinococcus granulosus. Put plainly: Antiparasitic acitivity against Echinococcus granulosus infected at 25 mg/kg. It is filed as functional.
For series [3], the system named is Echinococcus granulosus. Put plainly: Parasiticidal activity against Echinococcus granulosus protoscolices assessed as degeneration of outer skin at 5 uM incubated for 4 days by scanning electron microscopy. It is filed as functional, organism-based. Conditions: time 4.0 day.
Series [4] relates to Echinococcus granulosus. In words: Parasiticidal activity against Echinococcus granulosus protoscolices assessed as lethal effect at 0.5 to 5 uM by eosin exclusion test. It is filed as functional, organism-based. Particulars: dose 0.5-5 µM, TDE = time-dependent effect.
A short description of series [5]: Oral bioavailability in Wistar rat at 50 mg/kg, […] by HPLC analysis. It is filed as ADME, organism-based. Conditions: in vivo.
Series [6] deals with Echinococcus granulosus. In words: Parasiticidal activity against Echinococcus granulosus protoscolices assessed as appearance of rostellum hooks fall off at 5 uM incubated for 4 days by scanning electron microscopy analysis. Conditions: time 4.0 day. It is filed as functional, organism-based.
Series [7] has as its system Echinococcus granulosus. Put plainly: Parasiticidal activity against Echinococcus granulosus protoscolices assessed as lethal effect incubated for 4 days by eosin exclusion test. It is filed as functional, organism-based. Conditions: dose 0.5-5 µM, time 4.0 day.
Series [8] concerns Echinococcus granulosus. In words: Parasiticidal activity against Echinococcus granulosus protoscolices assessed as death rate at 0.5 uM incubated for 4 days by eosin exclusion test. Particulars: time 4 day. It is filed as functional.
The subject of series [9] is Echinococcus granulosus. In words: Parasiticidal activity against Echinococcus granulosus protoscolices […] by eosin exclusion test. It is filed as functional. Particulars: 1152 h, time 48 day.
Series [10] has as its system Echinococcus granulosus. In words: Parasiticidal activity against Echinococcus granulosus protoscolices assessed as death rate at 5 uM incubated for 4 days by eosin exclusion test. It is filed as functional. Conditions: time 4 day.
The test system of series [11] is Echinococcus granulosus. In words: Parasiticidal activity against Echinococcus granulosus cyst assessed as seperation from cuticle at 100 uM incubated for 4 days by scanning electron microscopy. It is filed as functional, organism-based. Particulars: time 4.0 day.
The test system of series [12] is Echinococcus granulosus. Put plainly: Parasiticidal activity against Echinococcus granulosus protoscolices assessed as change in ultrastructure at 5 uM incubated for 4 days by scanning electron microscopy. It is filed as functional, organism-based. Conditions: time 4.0 day.
Series [13] relates to Echinococcus granulosus. Put plainly: Parasiticidal activity against Echinococcus granulosus cyst assessed as formation of dense aggregates at 100 uM incubated for 4 days by scanning electron microscopy. It is filed as functional, organism-based. Particulars: time 4.0 day.
Series [14] has as its system Echinococcus granulosus. Put plainly: Parasiticidal activity against Echinococcus granulosus protoscolices assessed as loss of hooks at 5 uM incubated for 4 days by scanning electron microscopy. It is filed as functional, organism-based. Conditions: time 4.0 day.
Series [15] has as its system Echinococcus granulosus. In words: Parasiticidal activity against Echinococcus granulosus protoscolices assessed as appearance of blurred marginal structure at 5 uM incubated for 4 days by scanning electron microscopy analysis. It is filed as functional, organism-based. Conditions: time 4.0 day.
For series [16], the system named is Echinococcus granulosus. In words: Parasiticidal activity against Echinococcus granulosus protoscolices assessed as appearance of body shrank at 5 uM incubated for 4 days by scanning electron microscopy analysis. It is filed as functional, organism-based. Particulars: time 4.0 day.
Series [17] concerns Echinococcus granulosus. In words: Parasiticidal activity against Echinococcus granulosus protoscolices assessed as increase in death rate at 5 uM incubated for 4 days by darker staining-based light microscopy. Particulars: time 4.0 day. It is filed as functional, organism-based.
The nature of series [18]: Cmax in Wistar rat at 5 mg/kg, iv by HPLC analysis. It is filed as ADME, organism-based. Particulars: in vivo. Also on record: dose 5 mg/kg, route iv.
Series [19] concerns Echinococcus granulosus. In words: Parasiticidal activity against Echinococcus granulosus protoscolices assessed as loss of suckers at 5 uM incubated for 4 days by scanning electron microscopy. It is filed as functional. Conditions: time 4 day.
In series [20] the test system is Echinococcus granulosus. In words: Parasiticidal activity against Echinococcus granulosus protoscolices assessed as partial vacuolar change at 5 uM incubated for 4 days by scanning electron microscopy analysis. It is filed as functional, organism-based. Conditions: time 4.0 day.
Series [21] relates to Echinococcus granulosus. Put plainly: Potency index, ratio of Harmine LC50 to test compound LC50 for Parasiticidal activity against Echinococcus granulosus protoscolices. It is filed as functional.
The test system of series [22] is Echinococcus granulosus. Put plainly: Parasiticidal activity against Echinococcus granulosus assessed as collapse of germinal layers at 100 uM incubated for 4 days by scanning electron microscopy. It is filed as functional, organism-based. Particulars: time 4.0 day.
The nature of series [23]: AUC (0 to infinity) in Wistar rat at 5 mg/kg, iv by HPLC analysis. Also on record: dose 5 mg/kg, route iv. It is filed as ADME, organism-based. Particulars: in vivo.

Consider `CCCCn1c2ccccc2c2ccnc(-c3ccccc3Cl)c21`, for which the LC50 in [1] amounted to 41.6 µM. Further, in series [2], the Activity is 32.91%.
For the molecule `Cc1nc(NC(=O)c2ccc(CN3CCC(N4CCCCC4)CC3)cc2)cc2c1[nH]c1ccccc12`, the outcome in series [3], in [6], in series [11], in series [12], in [13] and in series [14] was Active. Further, the result in series [15], in series [16], in series [17], in series [20] and in series [22] was Active. Also, the Activity result in series [4] is “Tde”; in series [7], “Dose-Dependent Effect”; in series [8], greater than 50%; in series [10] it was greater than 90%; in series [19], 59.4%. The molecule further returned a bioavailability in [5] of 15.5%. Moreover, in [9], the LC50 amounted to 2.39 µM. The Cmax in series [18] stood at 1120 ng/mL. Besides, the RatioLC50 in series [21] came to 84. The total exposure AUC(0-inf) in series [23] was 1410 ng·h/mL.

These data come from ChEMBL document CHEMBL5344429, “1,3-Substituted β-Carboline Derivatives as Potent Chemotherapy for the Treatment of Cystic Echinococcosis” (J Med Chem, 2023).
